Results from patent publication US8901035B2, “Herbicidal compositions comprising 4-amino-3-chloro-5-fluoro-6-(4-chloro-2-fluoro-3-methoxyphenyl) pyridine-2-carboxylic acid or a derivative thereof and cellulose biosynthesis inhibitor herbicides” (Dow AgroSciences LLC, priority 2012, dated 2014).

Assays:
Type in all cases: in vivo
[1] = tested on: Galium aparine L. (GALAP); assay: Postemergence herbicidal activity of mixtures in cereal crops in the greenhouse
Experimental: (§1) Seeds of the desired test plant species were planted in Sun Gro MetroMix 306 planting mixture, which typically has a pH of 6.0 to 6.8 and an organic matter content of about 30 percent, in plastic pots with a surface area of 103.2 square centimeters (cm^2). When required to ensure good germination and healthy plants, a fungicide treatment and/or other chemical or physical treatment was applied. The plants were grown for 7-36 days in a greenhouse with an approximate 14 hour photoperiod which was maintained at about 18° C. during the day and about 17° C. during the night. Nutrients and water were added on a regular basis and supplemental lighting was provided with overhead metal halide 1000-Watt lamps as necessary. The plants were employed for testing when they reached the second or third true leaf stage.
(§2) Treatments consisted of the benzyl ester of 4-amino-3-chloro-5-fluoro-6-(4-chloro-2-fluoro-3-methoxy-phenyl)pyridine-2-carboxylic acid (Compound A), formulated as an SC, a second cereal herbicide alone and then both in combination.
(§3) Other herbicidal components were applied on an active ingredient basis and included cellulose biosynthesis inhibiting herbicides.
(§4) Measured aliquots of benzyl ester of 4-amino-3-chloro-5-fluoro-6-(4-chloro-2-fluoro-3-methoxy-phenyl)pyridine-2-carboxylic acid (Compound A) were placed in 25 milliliter (mL) glass vials and diluted in a volume of 1.25% (v/v) Agri-Dex® crop oil concentrate to obtain stock solutions. Compound requirements are based upon a 12 mL application volume at a rate of 187 liters per hectare (L/ha). Spray solutions of the second cereal herbicide and experimental compound mixtures were prepared by adding the stock solutions to the appropriate amount of dilution solution to form 12 mL spray solution with active ingredients in two- and three-way combinations. Formulated compounds were applied to the plant material with an overhead Mandel track sprayer equipped with an 8002E nozzle calibrated to deliver 187 L/ha over an application area of 0.503 square meters (m^2) at a spray height of 18 inches (46 cm) above average plant canopy. Control plants were sprayed in the same manner with the solvent blank.
(§5) The treated plants and control plants were placed in a greenhouse as described above and watered by sub-irrigation to prevent wash-off of the test compounds. After 20-22 days, the condition of the test plants as compared with that of the control plants was determined visually and scored on a scale of 0 to 100 percent where 0 corresponds to no injury and 100 corresponds to complete kill.
(§6) Colby's equation was used to determine the herbicidal effects expected from the mixtures (Colby, S. R. 1967. Calculation of the synergistic and antagonistic response of herbicide combinations. Weeds 15:20-22).
(§7) The following equation was used to calculate the expected activity of mixtures containing two active ingredients, A and B: Expected=A+B−(A×B/100)
(§8) A=observed efficacy of active ingredient A at the same concentration as used in the mixture.
(§9) B=observed efficacy of active ingredient B at the same concentration as used in the mixture.

[2] = tested on: Stellaria media (L.) Vill. (STEME); assay: as above
Experimental: as §1, §2, §3, §4, §5, §6, §7, §8, §9

[3] = tested on: Cirsium arvense (L.) Scop. (CIRAR); assay: as above
Experimental: as §1, §2, §3, §4, §5, §6, §7, §8, §9

[4] = tested on: Sinapis arvensis L. (SINAR); assay: as above
Experimental: as §1, §2, §3, §4, §5, §6, §7, §8, §9

[5] = tested on: Chenopodium album L. (CHEAL); assay: as above
Experimental: as §1, §2, §3, §4, §5, §6, §7, §8, §9

[6] = tested on: Amaranthus retroflexus L. (AMARE); assay: as above
Experimental: as §1, §2, §3, §4, §5, §6, §7, §8, §9

[7] = tested on: Ipomoea hederacea (L.) Jacq. (IPOHE); assay: Pre-emergence soil-applied herbicidal mixtures for weed control (greenhouse)
From the text: (§10) Seeds or nutlets of the desired test plant species were planted in a soil matrix prepared by mixing a loam soil (e.g., 32 percent silt, 23 percent clay, and 45 percent sand, with a pH of about 6.5 and an organic matter content of about 1.9 percent) and calcareous grit in an 80 to 20 ratio. The soil matrix was contained in plastic pots with a volume of 1 quart and a surface area of 83.6 square centimeters (cm^2).
(§11) Treatments consisted of the benzyl ester of 4-amino-3-chloro-5-fluoro-6-(4-chloro-2-fluoro-3-methoxy-phenyl)pyridine-2-carboxylic acid (compound A) formulated as an SC (suspension concentrate) and various herbicidal components alone and in combination. Forms of compound A were applied on an acid equivalent basis.
(§12) Other herbicidal components were applied on an acid equivalent or active ingredient basis and included the cellulose biosynthesis inhibiting herbicides, isoxaben formulated as Gallery® 75DF and indaziflam formulated as Specticle® 20WSP.
(§13) Treatment requirements were calculated based upon the rates being tested, the concentration of active ingredient or acid equivalent in the formulation, and a 12 mL application volume at a rate of 187 L/ha.
(§14) For treatments comprised of formulated compounds, measured amounts of compounds were placed individually in 25 mL glass vials and diluted in a volume of 1.25% (v/v) Agri-Dex® crop oil concentrate (COC) to obtain 12× stock solutions. […] Application solutions were prepared by adding an appropriate amount of each stock solution (e.g., 1 mL) and diluted to the appropriate final concentrations with the addition of 10 mL of an aqueous mixture of 1.25% (v/v) COC so that the final spray solutions contained 1.25% (v/v) COC.
(§15) All stock solutions and applications solutions were visually inspected for compound compatibility prior to application. Spray solutions were applied to the soil with an overhead Mandel track sprayer equipped with a 8002E nozzles calibrated to deliver 187 L/ha over an application area of 0.503 m^2 at a spray height of 18 inches (46 cm) above average pot height. Control pots were sprayed in the same manner with the solvent blank.
(§16) The treated and control pots were placed in a greenhouse and top watered as needed. When required to ensure good germination and healthy plants, a fungicide treatment and/or other chemical or physical treatment was applied. The pots were maintained in a greenhouse with an approximate 14 hr. photoperiod which was maintained at about 29° C. during the day and 26° C. during the night. Nutrients (Peters® Excel 15-5-15 5-Ca 2-Mg) were applied in the irrigation solution as needed and water was added on a regular basis. Supplemental lighting was provided with overhead metal halide 1000-Watt lamps as necessary. After approximately 4 weeks, the condition of the test plants as compared with that of the untreated plants was determined visually and scored on a scale of 0 to 100 percent where 0 corresponds to no injury or growth inhibition and 100 corresponds to complete kill.
as §6, §7, §8, §9

[8] = tested on: Setaria faberi Herrm. (SETFA); assay: as above
From the text: as §10, §11, §12, §13, §14, §15, §16, §6, §7, §8, §9

[9] = tested on: Xanthium strumarium L. (XANST); assay: as above
From the text: as §10, §11, §12, §13, §14, §15, §16, §6, §7, §8, §9

[10] = Compound A Benzyl Ester 2.5 g ai/ha alone
[11] = Compound A Benzyl Ester 5 g ai/ha alone
[12] = Compound A Benzyl Ester 10 g ai/ha alone
[13] = Compound A Benzyl Ester 16 g ae/ha alone
[14] = Compound A Benzyl Ester 32 g ae/ha alone

COc1c(Cl)ccc(-c2nc(C(=O)OCc3ccccc3)c(Cl)c(N)c2F)c1F [Compound A Benzyl Ester, benzyl ester of 4-amino-3-chloro-5-fluoro-6-(4-chloro-2-fluoro-3-methoxy-phenyl)pyridine-2-carboxylic acid]
Visual Weed Control (%) - 21 DAA Obs [1, 10]: 55%
Visual Weed Control (%) - 21 DAA Obs [1, 11]: 66%
Visual Weed Control (%) - 21 DAA Obs [1, 12]: 77%
Visual Weed Control (%) - 21 DAA Obs [2, 10]: 25%
Visual Weed Control (%) - 21 DAA Obs [2, 11]: 25%
Visual Weed Control (%) - 21 DAA Obs [2, 12]: 27%
Visual Weed Control (%) - 21 DAA Obs [3, 11]: 39%
Visual Weed Control (%) - 21 DAA Obs [3, 12]: 60%
Visual Weed Control (%) - 21 DAA SINAR Obs [4, 10]: 70%
Visual Weed Control (%) - 21 DAA SINAR Obs [4, 11]: 73%
Visual Weed Control (%) - 21 DAA CHEAL Obs [5, 10]: 50%
Visual Weed Control (%) - 21 DAA CHEAL Obs [5, 11]: 58%
Visual Weed Control (%) - 21 DAA AMARE Obs [6, 10]: 20%
Visual Weed Control (%) - 21 DAA AMARE Obs [6, 11]: 38%
Visual Weed Control (%) - 28 DAA IPOHE Obs [7, 13]: 13%
Visual Weed Control (%) - 28 DAA IPOHE Obs [7, 14]: 23%
Visual Weed Control (%) - 27 DAA SETFA Obs [8, 13]: 8%
Visual Weed Control (%) - 27 DAA SETFA Obs [8, 14]: 15%
Visual Weed Control (%) - 28 DAA XANST Obs [9, 13]: 0%
Visual Weed Control (%) - 28 DAA XANST Obs [9, 14]: 5%

CCC(C)(CC)c1cc(NC(=O)c2c(OC)cccc2OC)on1 [Isoxaben, N-[3-(1-ethyl-1-methylpropyl)-5-isoxazolyl]-2,6-dimethoxybenzamide, reference compound]
Visual Weed Control (%) - 21 DAA Obs ([1]; Isoxaben 31.25 g ai/ha alone): 0%
Visual Weed Control (%) - 21 DAA Obs ([1]; Isoxaben 62.5 g ai/ha alone): 8%
Visual Weed Control (%) - 21 DAA Obs ([1]; Isoxaben 125 g ai/ha alone): 12%
Visual Weed Control (%) - 21 DAA Obs ([2]; Isoxaben 31.25 g ai/ha alone): 5%
Visual Weed Control (%) - 21 DAA Obs ([2]; Isoxaben 62.5 g ai/ha alone): 5%
Visual Weed Control (%) - 21 DAA Obs ([3]; Isoxaben 31.25 g ai/ha alone): 3%
Visual Weed Control (%) - 21 DAA Obs ([3]; Isoxaben 62.5 g ai/ha alone): 13%
Visual Weed Control (%) - 21 DAA Obs ([3]; Isoxaben 125 g ai/ha alone): 17%
Visual Weed Control (%) - 21 DAA SINAR Obs ([4]; Isoxaben 31.25 g ai/ha alone): 13%
Visual Weed Control (%) - 21 DAA SINAR Obs ([4]; Isoxaben 62.5 g ai/ha alone): 13%
Visual Weed Control (%) - 21 DAA CHEAL Obs ([5]; Isoxaben 31.25 g ai/ha alone): 5%
Visual Weed Control (%) - 21 DAA CHEAL Obs ([5]; Isoxaben 62.5 g ai/ha alone): 5%
Visual Weed Control (%) - 21 DAA AMARE Obs ([6]; Isoxaben 31.25 g ai/ha alone): 0%
Visual Weed Control (%) - 21 DAA AMARE Obs ([6]; Isoxaben 62.5 g ai/ha alone): 8%
